Measured values: patent publication US8999974B2, “Acyl piperazine derivatives as TTX-S blockers” (Raqualia Pharma Inc., priority 2010, dated 2015)

Columns and labels:
human NaV1.3 = target: T1, human NaV1.3 (Homo sapiens, UniProt Q9NY46); test: FRET assay (EFS, FDSS) on HEK293 cells expressing human NaV1.3 channels; type: cell-based; settings: FRET assay, HEK293 cells expressing human NaV1.3; read-out: IC50 against Nav1.3
T1 construct: expressed in transfected cells; host or cells: HEK293
Outline: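 Membrane potential in HEK293 cells stably expressing human NaV1.3, read by FRET (CC2-DMPE 10 µM / DiSBAC2(3) 15 µM with 0.555 mM VABSC-1) after electrical field stimulation, in HEPES-buffered saline pH 7.4. Compounds added after dye loading at room temperature. IC50 from normalized 440 nm fluorescence ratios.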

human Nav1.7 = target: T2, human Nav1.7 (Homo sapiens, UniProt Q15858); test: FRET assay (EFS, FDSS) on CHO cells expressing human NaV1.7 channels; type: cell-based; settings: FRET assay, CHO cells expressing human NaV1.7; read-out: IC50 against Nav1.7
T2 construct: expressed in transfected cells; host or cells: CHO
Protocol: This screen was used to determine the effects of compounds on human NaV1.3, human Nav1.7, and human Nav1.5 channels, utilising electrical field stimulation (EFS) system in 96-well plate format on FDSS (Hamamatsu Photonics) platform. The change of membrane potential was monitored with FRET dye pair, oxonol (DiSBAC2(3)) and coumarin (CC2-DMPE).
CHO cells expressing human NaV1.7 channels were grown in T225 flasks, in a 5% CO2 humidified incubator to about 80% confluence. Media composition consisted of HAM/F12 with Glutamax I, 10% FCS, 100 units/ml Penicillin and 100 microgram/ml Hygromycin.
Protocol: • Seeded each cell lines (1×10^5 cells/well) into poly-D-lysine coated 96-well plates prior to experimentation. • Incubated at 37° C. in 5% CO2 for 24 hours. • Washed each well with assay buffer (140 mM NaCl, 4.5 mM KCl, 10 mM D-Glucose, 2 mM CaCl2, 1 mM MgCl2, 10 mM HEPES, pH 7.4 adjusted with NaOH) twice. • Added 1st loading solution containing 10 microM CC2-DMPE and 0.06% Pluronic F-127 in assay buffer. • Incubated the plate at room temperature in dark for 1 hour. • Removed 1st loading solution and added 2nd loading solution containing 15 microM DiSBAC2(3), 0.555 mM VABSC-1 and 0.004% Pluronic F-127 in assay buffer. • Placed the plate under the dark at room temperature for 25 minutes. • Added compound solutions into the assay plate. • Set the assay plate in FDSS and placed an EFS device on the plate. • Measured EFS-induced fluorescent response by FDSS.
The data were analyzed and reported as normalized ratios of intensities measured at […]. The process of calculating these ratios was performed as follows:
[formula] This analysis was performed using a computerized specific program designed for FDSS generated data. Fluorescence ratio values were plotted using XLfit to determine an IC50 value for each compound.

T2 sequence (Q15858 whole entry): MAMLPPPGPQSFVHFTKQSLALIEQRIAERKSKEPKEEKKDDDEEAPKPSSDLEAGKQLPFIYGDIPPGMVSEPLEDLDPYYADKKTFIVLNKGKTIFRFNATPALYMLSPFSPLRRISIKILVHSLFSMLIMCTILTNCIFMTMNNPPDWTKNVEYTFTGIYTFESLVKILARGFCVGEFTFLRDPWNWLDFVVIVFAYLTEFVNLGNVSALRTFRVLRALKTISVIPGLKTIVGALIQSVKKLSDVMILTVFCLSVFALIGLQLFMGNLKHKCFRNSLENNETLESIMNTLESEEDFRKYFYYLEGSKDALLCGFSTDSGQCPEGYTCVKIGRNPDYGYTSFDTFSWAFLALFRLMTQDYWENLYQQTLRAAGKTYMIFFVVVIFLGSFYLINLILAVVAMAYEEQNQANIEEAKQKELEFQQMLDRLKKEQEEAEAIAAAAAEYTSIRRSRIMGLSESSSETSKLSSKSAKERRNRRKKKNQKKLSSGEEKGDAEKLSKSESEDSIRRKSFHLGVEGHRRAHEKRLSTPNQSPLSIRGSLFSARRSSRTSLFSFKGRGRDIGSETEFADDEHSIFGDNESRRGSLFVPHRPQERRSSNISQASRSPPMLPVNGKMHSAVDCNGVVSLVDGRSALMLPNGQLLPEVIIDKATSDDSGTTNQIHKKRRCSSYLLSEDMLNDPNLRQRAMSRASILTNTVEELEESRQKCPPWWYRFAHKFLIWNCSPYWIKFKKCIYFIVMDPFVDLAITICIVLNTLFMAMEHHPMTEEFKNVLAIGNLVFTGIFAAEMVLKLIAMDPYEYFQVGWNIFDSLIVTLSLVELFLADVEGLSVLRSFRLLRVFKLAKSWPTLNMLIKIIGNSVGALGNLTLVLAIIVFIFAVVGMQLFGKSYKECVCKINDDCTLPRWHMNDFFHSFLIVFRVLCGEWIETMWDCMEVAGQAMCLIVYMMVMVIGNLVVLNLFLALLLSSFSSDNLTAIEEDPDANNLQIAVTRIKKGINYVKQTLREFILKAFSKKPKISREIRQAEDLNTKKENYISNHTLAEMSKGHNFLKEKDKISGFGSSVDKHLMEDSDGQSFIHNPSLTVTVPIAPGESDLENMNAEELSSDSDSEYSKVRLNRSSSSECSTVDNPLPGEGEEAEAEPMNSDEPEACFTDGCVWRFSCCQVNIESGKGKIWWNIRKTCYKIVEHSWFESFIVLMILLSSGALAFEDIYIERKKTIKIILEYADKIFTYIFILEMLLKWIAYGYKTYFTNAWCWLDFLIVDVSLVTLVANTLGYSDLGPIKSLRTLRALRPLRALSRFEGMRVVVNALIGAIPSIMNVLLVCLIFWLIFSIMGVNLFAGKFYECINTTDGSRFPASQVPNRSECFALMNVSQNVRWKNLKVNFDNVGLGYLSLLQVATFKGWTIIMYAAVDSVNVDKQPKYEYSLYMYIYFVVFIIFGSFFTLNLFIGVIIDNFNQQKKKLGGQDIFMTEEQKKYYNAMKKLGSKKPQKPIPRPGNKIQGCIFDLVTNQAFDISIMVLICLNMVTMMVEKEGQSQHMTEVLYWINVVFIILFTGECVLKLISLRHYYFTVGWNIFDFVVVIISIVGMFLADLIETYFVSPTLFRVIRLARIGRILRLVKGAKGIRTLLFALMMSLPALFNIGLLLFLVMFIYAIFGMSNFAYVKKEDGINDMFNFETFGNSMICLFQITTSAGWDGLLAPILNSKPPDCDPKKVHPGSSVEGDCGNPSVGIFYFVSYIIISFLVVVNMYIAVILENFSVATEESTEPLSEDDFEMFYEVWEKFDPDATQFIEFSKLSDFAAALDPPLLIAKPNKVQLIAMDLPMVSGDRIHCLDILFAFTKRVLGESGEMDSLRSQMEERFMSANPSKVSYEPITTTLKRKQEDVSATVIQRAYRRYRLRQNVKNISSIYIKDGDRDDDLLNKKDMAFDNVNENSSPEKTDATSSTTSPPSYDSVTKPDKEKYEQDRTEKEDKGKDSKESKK
T1 sequence (Q9NY46 whole entry): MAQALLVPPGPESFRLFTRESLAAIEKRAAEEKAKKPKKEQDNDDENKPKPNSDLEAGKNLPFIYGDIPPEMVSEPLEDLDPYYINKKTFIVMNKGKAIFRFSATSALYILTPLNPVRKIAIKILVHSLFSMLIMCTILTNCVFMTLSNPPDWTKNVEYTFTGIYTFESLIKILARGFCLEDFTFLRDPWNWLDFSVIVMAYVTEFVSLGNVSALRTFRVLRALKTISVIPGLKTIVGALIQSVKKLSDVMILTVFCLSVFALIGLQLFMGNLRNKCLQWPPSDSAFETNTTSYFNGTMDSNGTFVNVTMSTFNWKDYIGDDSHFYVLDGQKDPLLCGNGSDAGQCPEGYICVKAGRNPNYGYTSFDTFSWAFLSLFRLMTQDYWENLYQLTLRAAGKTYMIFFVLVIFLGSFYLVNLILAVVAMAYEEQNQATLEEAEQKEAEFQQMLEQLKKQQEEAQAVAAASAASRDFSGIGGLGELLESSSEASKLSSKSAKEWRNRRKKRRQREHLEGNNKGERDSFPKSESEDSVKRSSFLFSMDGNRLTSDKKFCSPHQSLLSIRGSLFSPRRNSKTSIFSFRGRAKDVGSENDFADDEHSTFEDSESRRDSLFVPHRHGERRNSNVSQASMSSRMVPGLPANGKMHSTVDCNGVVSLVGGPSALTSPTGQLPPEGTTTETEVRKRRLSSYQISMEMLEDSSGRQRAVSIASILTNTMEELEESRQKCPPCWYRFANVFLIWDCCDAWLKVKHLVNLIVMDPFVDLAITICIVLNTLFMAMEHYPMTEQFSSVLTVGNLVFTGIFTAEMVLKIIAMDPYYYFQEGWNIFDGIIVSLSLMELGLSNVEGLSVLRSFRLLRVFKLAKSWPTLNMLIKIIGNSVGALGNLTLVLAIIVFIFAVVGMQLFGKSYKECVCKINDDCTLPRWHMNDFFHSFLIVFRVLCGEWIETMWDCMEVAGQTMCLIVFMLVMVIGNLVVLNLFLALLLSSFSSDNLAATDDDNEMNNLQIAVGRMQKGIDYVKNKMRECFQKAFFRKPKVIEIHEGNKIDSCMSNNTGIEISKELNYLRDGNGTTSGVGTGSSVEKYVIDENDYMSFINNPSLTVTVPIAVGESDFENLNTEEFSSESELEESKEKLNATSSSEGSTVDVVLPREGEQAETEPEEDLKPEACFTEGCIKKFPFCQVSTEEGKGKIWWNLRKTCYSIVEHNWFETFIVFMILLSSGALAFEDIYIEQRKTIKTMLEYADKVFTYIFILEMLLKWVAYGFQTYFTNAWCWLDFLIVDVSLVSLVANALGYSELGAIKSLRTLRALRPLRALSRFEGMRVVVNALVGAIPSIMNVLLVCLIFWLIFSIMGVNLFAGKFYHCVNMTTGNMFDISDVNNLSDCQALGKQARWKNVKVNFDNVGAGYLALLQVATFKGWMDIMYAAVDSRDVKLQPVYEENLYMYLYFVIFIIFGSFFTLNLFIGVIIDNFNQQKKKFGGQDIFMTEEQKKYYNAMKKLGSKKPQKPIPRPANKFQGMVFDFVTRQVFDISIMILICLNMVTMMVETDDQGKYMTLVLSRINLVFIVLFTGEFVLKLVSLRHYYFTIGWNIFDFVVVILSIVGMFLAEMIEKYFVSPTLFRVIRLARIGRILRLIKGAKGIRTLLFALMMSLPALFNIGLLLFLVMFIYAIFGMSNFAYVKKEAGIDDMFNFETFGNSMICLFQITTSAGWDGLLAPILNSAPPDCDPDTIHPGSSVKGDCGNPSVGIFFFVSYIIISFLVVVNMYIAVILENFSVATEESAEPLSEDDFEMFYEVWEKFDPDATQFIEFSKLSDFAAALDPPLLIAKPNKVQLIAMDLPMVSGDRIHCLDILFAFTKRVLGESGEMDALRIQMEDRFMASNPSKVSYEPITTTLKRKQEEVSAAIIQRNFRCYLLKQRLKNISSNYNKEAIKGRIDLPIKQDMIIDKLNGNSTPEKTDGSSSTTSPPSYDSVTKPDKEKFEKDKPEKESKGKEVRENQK

Row | SMILES | IC50 (human NaV1.3) [µM] | IC50 (human Nav1.7) [µM]
1 | O=C(c1csc(-c2ccccn2)n1)N1CCN(c2cc(OCC(F)(F)F)ncn2)CC1 [Example 244, (2-(pyridin-2-yl)thiazol-4-yl)(4-(6-(2,2,2-trifluoroethoxy)pyrimidin-4-yl)piperazin-1-yl)methanone] | < 3 | < 3
2 | CC(C)COc1cc(N2CCN(C(=O)c3cc4ccccc4s3)CC2)ncn1 [Example 86] | < 3 | < 3
3 | O=C(CCOc1ccc(F)cc1)N1CCN(c2cc(OCC(F)(F)F)ncn2)CC1 [Example 139, 3-(4-fluorophenoxy)-1-(4-(6-(2,2,2-trifluoroethoxy)pyrimidin-4-yl)piperazin-1-yl)propan-1-one] | < 3 | < 3
4 | CC(C)COc1cc(N2CCN(C(=O)c3cc(-c4ccccc4)on3)CC2)ncn1 [Example 90] | < 3 | < 3
5 | CC(C)Oc1cc(N2CCN(C(=O)c3csc(-c4ccccc4)n3)CC2)ncn1 [Example 165, (4-(6-isopropoxypyrimidin-4-yl)piperazin-1-yl)(2-phenylthiazol-4-yl)methanone] | < 3 | < 3
6 | CCn1nc(C(=O)N2CCN(c3cc(OCC(F)(F)F)ncn3)CC2)cc1C(F)(F)F [Example 229, (1-ethyl-5-(trifluoromethyl)-1H-pyrazol-3-yl)(4-(6-(2,2,2-trifluoroethoxy)pyrimidin-4-yl)piperazin-1-yl)methanone] | < 3 | < 3
7 | CC(C)COc1cc(N2CCN(C(=O)c3cccc(OC(F)(F)F)c3)CC2)ncn1 [Example 15, (4-(6-isobutoxypyrimidin-4-yl)piperazin-1-yl)(3-(trifluoromethoxy)phenyl)methanone] | < 3 | < 3
8 | CC(C)COc1cc(N2CCN(C(=O)COc3cccc4cccnc34)CC2)ncn1 [Example 77, 1-(4-(6-isobutoxypyrimidin-4-yl)piperazin-1-yl)-2-(quinolin-8-yloxy)ethanone] | < 3 | < 3
9 | Cc1c(C(=O)N2CCN(c3cc(OCC(C)C)ncn3)CC2)cnn1-c1ccc(F)cc1 [Example 169, (1-(4-fluorophenyl)-5-methyl-1H-pyrazol-4-yl)(4-(6-isobutoxypyrimidin-4-yl)piperazin-1-yl)methanone] | < 3 | < 3
10 | Cc1nc(-c2ccccc2)oc1C(=O)N1CCN(c2cc(OCC(C)C)ncn2)CC1 [Example 208, (4-(6-isobutoxypyrimidin-4-yl)piperazin-1-yl)(4-methyl-2-phenyloxazol-5-yl)methanone] | < 3 | < 3
11 | CC(C)COc1cc(N2CCN(C(=O)COc3ccc(F)cc3)CC2)ncn1 [Example 24, 2-(4-fluorophenoxy)-1-(4-(6-isobutoxypyrimidin-4-yl)piperazin-1-yl)ethanone] | < 3 | < 3
12 | CC(C)COc1cc(N2CCN(C(=O)COc3cccc4c3ccn4C)CC2)ncn1 [Example 141, 1-(4-(6-isobutoxypyrimidin-4-yl)piperazin-1-yl)-2-((1-methyl-1H-indol-4-yl)oxy)ethanone] | < 3 | < 3
13 | CC(C)COc1cc(N2CCN(C(=O)COc3cccc(OC(F)(F)F)c3)CC2)ncn1 [Example 145, 1-(4-(6-isobutoxypyrimidin-4-yl)piperazin-1-yl)-2-(3-(trifluoromethoxy)phenoxy)ethanone] | < 3 | < 3
14 | COc1cccc(OCC(=O)N2CCN(c3cc(OCC(C)C)ncn3)CC2)c1 [Example 70, 1-(4-(6-isobutoxypyrimidin-4-yl)piperazin-1-yl)-2-(3-methoxyphenoxy)ethanone] | < 3 | < 3
15 | O=C(Cn1nc2ccccc2n1)N1CCN(c2cc(OCC(F)(F)F)ncn2)CC1 [Example 146, 2-(2H-benzo[d][1,2,3]triazol-2-yl)-1-(4-(6-(2,2,2-trifluoroethoxy)pyrimidin-4-yl)piperazin-1-yl)ethanone] | < 3 | < 3
16 | Cc1cccc(OCCC(=O)N2CCN(c3cc(OCC(C)C)ncn3)CC2)c1 [Example 132, 1-(4-(6-isobutoxypyrimidin-4-yl)piperazin-1-yl)-3-(m-tolyloxy)propan-1-one] | < 3 | < 3
17 | CC(C)COc1cc(N2CCN(C(=O)c3nn(C)c4ccccc34)CC2)ncn1 [Example 22, (4-(6-isobutoxypyrimidin-4-yl)piperazin-1-yl)(1-methyl-1H-indazol-3-yl)methanone] | < 3 | < 3
18 | CC(C)COc1cc(N2CCN(C(=O)CCOc3ccc(F)cc3)CC2)ncn1 [Example 89, 3-(4-fluorophenoxy)-1-(4-(6-isobutoxypyrimidin-4-yl)piperazin-1-yl)propan-1-one] | < 3 | < 3
19 | CC(C)COc1cc(N2CCN(C(=O)c3cc(-c4ccccc4)n(C)n3)CC2)ncn1 [Example 133, (4-(6-isobutoxypyrimidin-4-yl)piperazin-1-yl)(1-methyl-5-phenyl-1H-pyrazol-3-yl)methanone] | < 3 | < 3
20 | Cc1nc(-c2cccc(C(=O)N3CCN(c4cc(OCC(C)C)ncn4)CC3)c2)cs1 [Example 187, (4-(6-isobutoxypyrimidin-4-yl)piperazin-1-yl)(3-(2-methylthiazol-4-yl)phenyl)methanone] | < 3 | < 3
21 | CC(C)COc1cc(N2CCN(C(=O)CSc3ccccc3)CC2)ncn1 [Example 120, 1-(4-(6-isobutoxypyrimidin-4-yl)piperazin-1-yl)-2-(phenylthio)ethanone] | < 3 | < 3
22 | CC(C)COc1cc(N2CCN(C(=O)COCc3ccc(F)cc3)CC2)ncn1 [Example 168, 2-((4-fluorobenzyl)oxy)-1-(4-(6-isobutoxypyrimidin-4-yl)piperazin-1-yl)ethanone] | < 3 | < 3
23 | CC(C)COc1cc(N2CCN(C(=O)CCn3ccc4ccccc43)CC2)ncn1 [Example 59, 3-(1H-indol-1-yl)-1-(4-(6-isobutoxypyrimidin-4-yl)piperazin-1-yl)propan-1-one] | < 3 | < 3
24 | CC(C)COc1cc(N2CCN(C(=O)Cn3ccc4ccccc4c3=O)CC2)ncn1 [Example 236, 2-(2-(4-(6-isobutoxypyrimidin-4-yl)piperazin-1-yl)-2-oxoethyl)isoquinolin-1(2H)-one] |  | < 3
25 | O=C(c1csc(-c2ccccc2)n1)N1CCN(c2cc(OCC(F)(F)F)ncn2)CC1 [Example 166, (2-phenylthiazol-4-yl)(4-(6-(2,2,2-trifluoroethoxy)pyrimidin-4-yl)piperazin-1-yl)methanone] |  | < 3
26 | CC(C)COc1cc(N2CCN(C(=O)Cc3c[nH]c4ccccc34)CC2)ncn1 [Example 102, 2-(1H-indol-3-yl)-1-(4-(6-isobutoxypyrimidin-4-yl)piperazin-1-yl)ethanone] |  | < 3
27 | Cc1ccc(C(=O)N2CCN(c3cc(OCC(F)(F)F)ncn3)CC2)cc1F [Example 8, 3-(fluoro-4-methylphenyl)(4-(6-(2,2,2-trifluoroethoxy)pyrimidin-4-yl)piperazin-1-yl)methanone] |  | < 3
28 | CC(C)COc1cc(N2CCN(C(=O)[C@@H](N)c3ccccc3)CC2)ncn1 [Example 27, (S)-2-amino-1-(4-(6-isobutoxypyrimidin-4-yl)piperazin-1-yl)-2-phenylethanone] |  | < 3
29 | COc1ccccc1-c1cc(C(=O)N2CCN(c3cc(OCC(C)C)ncn3)CC2)[nH]n1 [Example 175] |  | < 3
